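Method: 48-hour compound exposure of cells in 96-well plates, five concentrations, linear interpolation of endpoints. GI50: concentration for 50% inhibition of growth. TGI: total growth inhibition.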
How the values were obtained:
Assay in all cases: NCI anticancer screen, dose series, 48 h
SF-539 CNS = test system: SF-539 CNS
MDA-MB-435 = test system: MDA-MB-435
ACHN renal = test system: ACHN renal
TK-10 renal = test system: TK-10 renal
IGROV1 ovarian = test system: IGROV1 ovarian
NCI-H522 lung = test system: NCI-H522 lung
HOP-92 NSCLC = test system: HOP-92 NSCLC
T-47D breast = test system: T-47D breast
SK-MEL-5 melanoma = test system: SK-MEL-5 melanoma
EKVX NSCLC = test system: EKVX NSCLC
UO-31 renal = test system: UO-31 renal
MDA-MB-231 breast = test system: MDA-MB-231 breast
SR leukemia = test system: SR leukemia
HT29 colon = test system: HT29 colon
NCI-H23 lung = test system: NCI-H23 lung
SK-MEL-2 melanoma = test system: SK-MEL-2 melanoma
OVCAR-8 ovarian = test system: OVCAR-8 ovarian
MOLT-4 leukemia = test system: MOLT-4 leukemia
NCI-H460 lung = test system: NCI-H460 lung
SF-295 CNS = test system: SF-295 CNS
UACC-62 melanoma = test system: UACC-62 melanoma
U251 CNS = test system: U251 CNS
HL-60(TB) leukemia = test system: HL-60(TB) leukemia
K-562 leukemia = test system: K-562 leukemia
HCT-15 colon = test system: HCT-15 colon
A498 renal = test system: A498 renal
HOP-62 NSCLC = test system: HOP-62 NSCLC
DU-145 prostate = test system: DU-145 prostate
OVCAR-4 ovarian = test system: OVCAR-4 ovarian
MALME-3M melanoma = test system: MALME-3M melanoma
NCI-H226 lung = test system: NCI-H226 lung
CAKI-1 renal = test system: CAKI-1 renal
SF-268 CNS = test system: SF-268 CNS
BT-549 breast = test system: BT-549 breast
SNB-19 CNS = test system: SNB-19 CNS
KM12 colon = test system: KM12 colon
HCT-116 colon = test system: HCT-116 colon
M14 melanoma = test system: M14 melanoma
RXF 393 renal = test system: RXF 393 renal
OVCAR-3 ovarian = test system: OVCAR-3 ovarian
SNB-75 CNS = test system: SNB-75 CNS
HCC-2998 colon = test system: HCC-2998 colon
PC-3 prostate = test system: PC-3 prostate
UACC-257 melanoma = test system: UACC-257 melanoma
RPMI-8226 leukemia = test system: RPMI-8226 leukemia
SN12C renal = test system: SN12C renal
HS 578T breast = test system: HS 578T breast
SW-620 colon = test system: SW-620 colon
LOX IMVI melanoma = test system: LOX IMVI melanoma
SK-MEL-28 melanoma = test system: SK-MEL-28 melanoma
SK-OV-3 ovarian = test system: SK-OV-3 ovarian
COLO 205 colon = test system: COLO 205 colon
A549 NSCLC = test system: A549 NSCLC
786-0 renal = test system: 786-0 renal
OVCAR-5 ovarian = test system: OVCAR-5 ovarian
MCF7 breast = test system: MCF7 breast

`COc1cccc(/C=C/C(=O)c2cc3c(N)c(C(=O)Nc4ccccc4)sc3nc2C)c1` showed a GI50 (SF-539 CNS) of 0.957 µM, a TGI (SF-539 CNS) of 1.84 µM and a GI50 (MDA-MB-435) of 0.989 µM. The TGI (MDA-MB-435) was 2.86 µM, the GI50 (ACHN renal) was 0.971 µM and the TGI (ACHN renal) was 1.86 µM. The GI50 (TK-10 renal) was 1.56 µM, the TGI (TK-10 renal) was 5.47 µM and the GI50 (IGROV1 ovarian) was 0.954 µM. For the same molecule, the TGI (IGROV1 ovarian) was 2 µM, the GI50 (NCI-H522 lung) was 1.06 µM and the TGI (NCI-H522 lung) was 3.08 µM. The GI50 (HOP-92 NSCLC) was 1.08 µM, the TGI (HOP-92 NSCLC) was 4.24 µM and the GI50 (T-47D breast) was 1.24 µM. It also gave a TGI (T-47D breast) of 3.89 µM, a GI50 (SK-MEL-5 melanoma) of 1.48 µM and a TGI (SK-MEL-5 melanoma) of 5.53 µM. It also gave a GI50 (EKVX NSCLC) of 5.8 µM, a TGI (EKVX NSCLC) of 13.1 µM and a GI50 (UO-31 renal) of 0.842 µM. It also gave a TGI (UO-31 renal) of 1.62 µM, a GI50 (MDA-MB-231 breast) of 1.79 µM and a TGI (MDA-MB-231 breast) of 11.7 µM. For the same molecule, the GI50 (SR leukemia) was 1.28 µM, the TGI (SR leukemia) was 6.46 µM and the GI50 (HT29 colon) was 1.21 µM. For the same molecule, the TGI (HT29 colon) was 3.42 µM, the GI50 (NCI-H23 lung) was 1.2 µM and the TGI (NCI-H23 lung) was 3.05 µM. The GI50 (SK-MEL-2 melanoma) was 1.75 µM, the TGI (SK-MEL-2 melanoma) was 8.63 µM and the GI50 (OVCAR-8 ovarian) was 1.63 µM. For the same molecule, the TGI (OVCAR-8 ovarian) was > 50 µM, the GI50 (MOLT-4 leukemia) was 1.59 µM and the TGI (MOLT-4 leukemia) was > 50 µM. It also gave a GI50 (NCI-H460 lung) of 1.1 µM, a TGI (NCI-H460 lung) of 2.47 µM and a GI50 (SF-295 CNS) of 6.27 µM. For the same molecule, the TGI (SF-295 CNS) was > 50 µM, the GI50 (UACC-62 melanoma) was 0.943 µM and the TGI (UACC-62 melanoma) was 2.19 µM. It also gave a GI50 (U251 CNS) of 0.897 µM, a TGI (U251 CNS) of 1.72 µM and a GI50 (HL-60(TB) leukemia) of 1.02 µM. The TGI (HL-60(TB) leukemia) was 2.72 µM, the GI50 (K-562 leukemia) was 1.47 µM and the TGI (K-562 leukemia) was > 50 µM. The GI50 (HCT-15 colon) was 1.16 µM, the TGI (HCT-15 colon) was 3.37 µM and the GI50 (A498 renal) was 1.18 µM. For the same molecule, the TGI (A498 renal) was 4.41 µM, the GI50 (HOP-62 NSCLC) was 1.09 µM and the TGI (HOP-62 NSCLC) was 2.44 µM. It also gave a GI50 (DU-145 prostate) of 1.39 µM, a TGI (DU-145 prostate) of 4.37 µM and a GI50 (OVCAR-4 ovarian) of 1.78 µM. The TGI (OVCAR-4 ovarian) was > 50 µM, the GI50 (MALME-3M melanoma) was 2.03 µM and the TGI (MALME-3M melanoma) was 15 µM. It also gave a GI50 (NCI-H226 lung) of 1.15 µM, a TGI (NCI-H226 lung) of 2.75 µM and a GI50 (CAKI-1 renal) of 0.933 µM. The TGI (CAKI-1 renal) was 1.91 µM, the GI50 (SF-268 CNS) was 1.47 µM and the TGI (SF-268 CNS) was 5.82 µM. The GI50 (BT-549 breast) was 1.19 µM, the TGI (BT-549 breast) was 4.06 µM and the GI50 (SNB-19 CNS) was 1.52 µM. The TGI (SNB-19 CNS) was 5.58 µM, the GI50 (KM12 colon) was 0.988 µM and the TGI (KM12 colon) was 2.23 µM. It also gave a GI50 (HCT-116 colon) of 0.838 µM, a TGI (HCT-116 colon) of 1.58 µM and a GI50 (M14 melanoma) of 1.27 µM. The TGI (M14 melanoma) was 3.52 µM, the GI50 (RXF 393 renal) was 0.837 µM and the TGI (RXF 393 renal) was 1.71 µM. For the same molecule, the GI50 (OVCAR-3 ovarian) was 1.18 µM, the TGI (OVCAR-3 ovarian) was 3.32 µM and the GI50 (SNB-75 CNS) was 0.889 µM. For the same molecule, the TGI (SNB-75 CNS) was > 50 µM, the GI50 (HCC-2998 colon) was 0.901 µM and the TGI (HCC-2998 colon) was 1.66 µM. The GI50 (PC-3 prostate) was 1.47 µM, the TGI (PC-3 prostate) was 5.06 µM and the GI50 (UACC-257 melanoma) was 1.9 µM. For the same molecule, the TGI (UACC-257 melanoma) was 8.97 µM, the GI50 (RPMI-8226 leukemia) was 1.18 µM and the TGI (RPMI-8226 leukemia) was 2.54 µM. The GI50 (SN12C renal) was 1.12 µM, the TGI (SN12C renal) was 2.78 µM and the GI50 (HS 578T breast) was 1.92 µM. For the same molecule, the TGI (HS 578T breast) was > 50 µM, the GI50 (SW-620 colon) was 1.12 µM and the TGI (SW-620 colon) was 3.09 µM. It also gave a GI50 (LOX IMVI melanoma) of 0.887 µM, a TGI (LOX IMVI melanoma) of 1.64 µM and a GI50 (SK-MEL-28 melanoma) of 1.72 µM. It also gave a TGI (SK-MEL-28 melanoma) of 6.45 µM, a GI50 (SK-OV-3 ovarian) of 4.96 µM and a TGI (SK-OV-3 ovarian) of 19.8 µM. It also gave a GI50 (COLO 205 colon) of 1.54 µM, a TGI (COLO 205 colon) of 4.71 µM and a GI50 (A549 NSCLC) of 1.51 µM. For the same molecule, the TGI (A549 NSCLC) was 6.23 µM, the GI50 (786-0 renal) was 0.802 µM and the TGI (786-0 renal) was 1.72 µM. The GI50 (OVCAR-5 ovarian) was 1.28 µM, the TGI (OVCAR-5 ovarian) was 4.61 µM and the GI50 (MCF7 breast) was 1.69 µM. It also gave a TGI (MCF7 breast) of 8.85 µM.

From PubChem BioAssay (NCI)
